The text below walks through data of PMC11062899, “De novo development of small cyclic peptides that are orally bioavailable” (Nature Chemical Biology, 2023).

In this experiment the target is human α-thrombin (Homo sapiens, UniProt P00734). Description: Sub-library screen for active and permeable cyclic peptides (PAMPA plus thrombin inhibition). It counts as biochemical. As to conditions: crude, slopes normalized to DMSO; for Residual thrombin activity: Top sample: PAMPA acceptor well after 14 h, 5 μM donor; for Residual thrombin activity: Equilibrated sample: donor sample diluted to theoretical equilibrium (1 μM in assay). As to the method:
Linear dithiol peptides were synthesized in fritted 5-ml polypropylene syringes on a MultiPep RSi parallel peptide synthesizer (Intavis) by standard Fmoc-based solid-phase peptide synthesis on cysteamine 2-chlorotrityl resin (Sigma-Aldrich, 8.56000, 1.63 mmol g^−1 loading, 25 μmol scale) as described above with small changes. Amino acids (65 μmol, 2.6 eq.) were activated with HATU (63 μmol, 2.5 eq.) and NMM (145 μmol, 5.8 eq.) in 280 μl of DMF and 5 μl of NMP and let to react with the resin (25 μmol, 1 eq.) for 45 min. Couplings were performed twice for each amino acid. Resin was washed once with 800 μl of DMF, and unreacted amines were capped with 5% acetic anhydride and 6% 2,6-lutidine in 400 μl of DMF for 5 min. The resin was washed six times with 600 μl of DMF, and Fmoc protecting groups were removed by incubating the resin twice with 450 μl of a 20% piperidine solution in DMF for 5 min. The resin was washed six times with 600 μl of DMF before proceeding to the next coupling cycle. After completing the last coupling cycle, the resin was washed six times with […] of DCM. Peptide cleavage and ether precipitation were carried out as described above. After quantification with Ellman’s reagent, 1 μmol of each peptide was transferred in seven replicates to new Nunc 96-well DeepWell polypropylene plates and lyophilized. Peptides were cyclized as described above to afford 20 mM cyclic peptide stock solutions in DMSO containing 160 mM HEPES sodium salt. The amine on cyclic peptides was acylated with 5-chlorothiophene-2-carboxylic acid as follows. A 160 mM solution in 5-chlorothiophene-2-carboxylic acid was prepared in DMSO containing 160 mM HEPES sodium salt, and the acid was activated by mixing in equal volumes with a 160 mM HSTU solution in DMSO. Then, 10 μl of the activated carboxylic acid solutions and the cyclic peptide stocks were placed in Echo Qualified 384-well Low Dead Volume microplates (Labcyte), and 400 nl of cyclic peptide and 400 nl of HSTU-activated 5-chlorothiophene-2-carboxylic acid were transferred combinatorially to 384-well microplates (Greiner, 781076) using the Echo 650 acoustic liquid handler (Labcyte). Plates were centrifuged at 2,000 g for 2 min, and the reaction was allowed to proceed at room temperature for 8 h before addition of 39.2 μl of DMSO with a CERTUS FLEX liquid dispenser (Gyger). A volume of 25 μl of the resulting DMSO solutions was diluted with PBS buffer at pH 7.4 containing 5% DMSO in Nunc 96-well DeepWell polypropylene plates to afford 5 μM solutions of the acylated peptides.
The PAMPA plates were covered with a lid to avoid evaporation and incubated for 14 h at room temperature. Additionally, a diluted donor sample was prepared at the concentration representing theoretical maximum permeability (3 μM). Thereby, 30 μl of the donor sample before incubation was diluted with 20 μl of PBS buffer at pH 7.4 containing 5% DMSO. Volumes of 16 μl of each acceptor well and the diluted donor samples were transferred to a 384-well microplate (Greiner, 781076), and thrombin activity was measured as follows. Human α-thrombin (16 μl, 6 nM, Molecular Innovations) in assay buffer was dispensed into each well using a CERTUS FLEX liquid dispenser (Gyger), and plates were incubated at room temperature for 10 min. Then, 16 μl of a 150 μM fluorogenic thrombin substrate solution (Z-Gly-Gly-Arg-AMC, Bachem) in assay buffer containing 1% DMSO was added to each well, and thrombin inhibition was determined by measuring the fluorescent gain over time. Fluorescence intensity was measured on a Tecan Infinite M200 Pro microplate reader for 30 min at 25 °C with a fluorescent readout every 3 min (excitation: 360 nm, emission: 465 nm). Protease inhibition was calculated by comparing the enzymatic activity to a control without cyclic peptide.
A general note: In PAMPA a lipid-coated filter parts donor from acceptor wells.

With `O=C1C[C@H]2CCCN2C(=O)[C@H](Cc2ccc(Cl)cc2)NC(=O)[C@@H](NC(=O)c2ccc(Cl)s2)CCCSCc2cccc(n2)CSCCN1` [C3-X34-L1], the “Residual thrombin activity: Top sample” value was found to be 99.1 and the “Residual thrombin activity: Equilibrated sample” value is given as 94.7.

Consider `O=C1C[C@H]2CCCN2C(=O)[C@@H](Cc2ccccc2)NC(=O)[C@@H](NC(=O)c2ccc(Cl)s2)CCCSCc2cccc(c2)CSCCN1` [C3-X31-L5], for which the “Residual thrombin activity: Top sample” value amounted to 105.2 and the “Residual thrombin activity: Equilibrated sample” value is 103.4.

Regarding `O=C1C[C@H]2CCCN2C(=O)[C@H](Cc2ccccc2)NC(=O)[C@@H](NC(=O)c2ccc(Cl)s2)CCCSCc2ccccc2CSCCN1` [C3-X5-L6], the “Residual thrombin activity: Top sample” value is reported as 74.4 and the “Residual thrombin activity: Equilibrated sample” value was 55.6.

For `Cc1cccc(C[C@@H]2NC(=O)[C@@H](NC(=O)c3ccc(Cl)s3)CCSCc3ccccc3CSCCNC(=O)C[C@H]3CCCN3C2=O)c1` [C2-X37-L6], the “Residual thrombin activity: Top sample” value is recorded as 97.5 and the “Residual thrombin activity: Equilibrated sample” value was 96.9.

With `O=C1C[C@H]2CCCN2C(=O)[C@@H](Cc2ccccc2)NC(=O)[C@@H](NC(=O)c2ccc(Cl)s2)CCCSCc2ccc(cc2)CSCCN1` [C3-X31-L3], the “Residual thrombin activity: Top sample” value came to 99.4 and the “Residual thrombin activity: Equilibrated sample” value was found to be 96.8.

For `O=C1CSCCC[C@H](NC(=O)c2ccc(Cl)s2)C(=O)N[C@@H](Cc2ccc(C(F)(F)F)cc2)C(=O)N2CCC[C@@H]2CC(=O)NCCSC1` [C3-X36-L7], the “Residual thrombin activity: Top sample” value turned out to be 101.7 and the “Residual thrombin activity: Equilibrated sample” value stood at 101.7.

With `O=C1C[C@H]2CCCN2C(=O)[C@H](Cc2ccccc2)NC(=O)[C@@H](NC(=O)c2ccc(Cl)s2)CCSCc2ccc(cc2)CSCCN1` [C2-X5-L3], the “Residual thrombin activity: Top sample” value is reported as 86.6 and the “Residual thrombin activity: Equilibrated sample” value is on record as 59.6.

With `O=C1C[C@H]2CCCN2C(=O)[C@@H](Cc2ccccc2)NC(=O)[C@@H](NC(=O)c2ccc(Cl)s2)CSCc2ccccc2CSCCN1` [C1-X31-L6], the “Residual thrombin activity: Top sample” value worked out at 88.4 and the “Residual thrombin activity: Equilibrated sample” value is listed as 91.2.

Consider `CN1C(=O)[C@@H](NC(=O)c2ccc(Cl)s2)CCSCc2cccc(c2)CSCCNC(=O)C[C@H]2CCCN2C(=O)[C@@H]1Cc1ccccc1` [C2-X32-L5], for which the “Residual thrombin activity: Top sample” value turned out to be 104.7 and the “Residual thrombin activity: Equilibrated sample” value was 100.8.

Regarding `O=C1C[C@H]2CCCN2C(=O)[C@H](Cc2ccc(C(F)(F)F)cc2)NC(=O)[C@@H](NC(=O)c2ccc(Cl)s2)CSCc2ccc(cc2)CSCCN1` [C1-X36-L3], the “Residual thrombin activity: Top sample” value stood at 95.8 and the “Residual thrombin activity: Equilibrated sample” value is 94.6.

For the molecule `CN1C(=O)[C@@H](NC(=O)c2ccc(Cl)s2)CSC/C=C/CSCCNC(=O)C[C@H]2CCCN2C(=O)[C@@H]1Cc1ccccc1` [C1-X32-L4], the “Residual thrombin activity: Top sample” value worked out at 95.6 and the “Residual thrombin activity: Equilibrated sample” value was determined as 100.2.

In the case of `CN1C(=O)[C@@H](NC(=O)c2ccc(Cl)s2)CCSCC(=O)CSCCNC(=O)C[C@H]2CCCN2C(=O)[C@@H]1Cc1ccccc1` [C2-X32-L7], the “Residual thrombin activity: Top sample” value is listed as 101.9 and the “Residual thrombin activity: Equilibrated sample” value was determined as 101.7.

In the case of `O=C1C[C@H]2CCCN2C(=O)[C@H](Cc2ccccc2)NC(=O)[C@@H](NC(=O)c2ccc(Cl)s2)CCSC/C=C/CSCCN1` [C2-X5-L4], the “Residual thrombin activity: Top sample” value was determined as 61.9 and the “Residual thrombin activity: Equilibrated sample” value was found to be 33.0.

For the molecule `CN1C(=O)[C@@H](NC(=O)c2ccc(Cl)s2)CCCSCC(=O)CSCCNC(=O)C[C@H]2CCCN2C(=O)[C@@H]1Cc1ccccc1` [C3-X32-L7], the “Residual thrombin activity: Top sample” value came out at 102.9 and the “Residual thrombin activity: Equilibrated sample” value came out at 98.1.

For the molecule `O=C1CSCCNC(=O)C[C@H]2CCCN2C(=O)[C@H](Cc2ccc(C(F)(F)F)cc2)NC(=O)[C@@H](NC(=O)c2ccc(Cl)s2)CSC1` [C1-X36-L7], the “Residual thrombin activity: Top sample” value is reported as 100.3 and the “Residual thrombin activity: Equilibrated sample” value came out at 99.5.

Consider `COc1ccc(C[C@@H]2NC(=O)[C@@H](NC(=O)c3ccc(Cl)s3)CSCc3cccc(n3)CSCCNC(=O)C[C@H]3CCCN3C2=O)cc1` [C1-X33-L1], for which the “Residual thrombin activity: Top sample” value is 92.7 and the “Residual thrombin activity: Equilibrated sample” value is 96.7.

Regarding `O=C1C[C@H]2CCCN2C(=O)[C@H](Cc2ccc(C(F)(F)F)cc2)NC(=O)[C@@H](NC(=O)c2ccc(Cl)s2)CCCSCc2ccccc2CSCCN1` [C3-X36-L6], the “Residual thrombin activity: Top sample” value is listed as 96.6 and the “Residual thrombin activity: Equilibrated sample” value was found to be 97.7.

Take `O=C1CSCCNC(=O)C[C@H]2CCCN2C(=O)[C@H](Cc2ccccc2)NC(=O)[C@@H](NC(=O)c2ccc(Cl)s2)CCSC1` [C2-X5-L7]: the “Residual thrombin activity: Top sample” value was determined as 95.7 and the “Residual thrombin activity: Equilibrated sample” value is 44.2.

Turning to `COc1ccc(C[C@@H]2NC(=O)[C@@H](NC(=O)c3ccc(Cl)s3)CSCc3ccc(cc3)CSCCNC(=O)C[C@H]3CCCN3C2=O)cc1` [C1-X33-L3], the “Residual thrombin activity: Top sample” value was 96.4 and the “Residual thrombin activity: Equilibrated sample” value is on record as 98.9.

As to `O=C1C[C@H]2CCCN2C(=O)[C@H](Cc2ccc(C(F)(F)F)cc2)NC(=O)[C@@H](NC(=O)c2ccc(Cl)s2)CSCc2cccc(c2)CSCCN1` [C1-X36-L5], the “Residual thrombin activity: Top sample” value is on record as 101.6 and the “Residual thrombin activity: Equilibrated sample” value came to 104.5.

In the case of `O=C1CSCCNC(=O)C[C@H]2CCCN2C(=O)[C@H](Cc2ccccc2)NC(=O)[C@@H](NC(=O)c2ccc(Cl)s2)CSC1` [C1-X5-L7], the “Residual thrombin activity: Top sample” value was determined as 93.6 and the “Residual thrombin activity: Equilibrated sample” value is recorded as 82.8.

On to `O=C1C[C@H]2CCCN2C(=O)[C@H](Cc2ccccc2)NC(=O)[C@@H](NC(=O)c2ccc(Cl)s2)CSCc2cccc(c2)CSCCN1` [C1-X5-L5], for which the “Residual thrombin activity: Top sample” value came out at 92.1 and the “Residual thrombin activity: Equilibrated sample” value is listed as 73.3.

As for `CN1C(=O)[C@@H](NC(=O)c2ccc(Cl)s2)CCCSCc2ccccc2CSCCNC(=O)C[C@H]2CCCN2C(=O)[C@@H]1Cc1ccccc1` [C3-X32-L6], the “Residual thrombin activity: Top sample” value came out at 99.5 and the “Residual thrombin activity: Equilibrated sample” value came out at 96.0.

On to `O=C1C[C@H]2CCCN2C(=O)[C@H](Cc2ccc(Cl)cc2)NC(=O)[C@@H](NC(=O)c2ccc(Cl)s2)CCSCCS(=O)(=O)CCSCCN1` [C2-X34-L2], for which the “Residual thrombin activity: Top sample” value amounted to 99.3 and the “Residual thrombin activity: Equilibrated sample” value amounted to 99.5.

As to `COc1ccc(C[C@@H]2NC(=O)[C@@H](NC(=O)c3ccc(Cl)s3)CCSC/C=C/CSCCNC(=O)C[C@H]3CCCN3C2=O)cc1` [C2-X33-L4], the “Residual thrombin activity: Top sample” value was 100.6 and the “Residual thrombin activity: Equilibrated sample” value came to 93.7.

For `COc1ccc(C[C@@H]2NC(=O)[C@@H](NC(=O)c3ccc(Cl)s3)CSCc3ccccc3CSCCNC(=O)C[C@H]3CCCN3C2=O)cc1` [C1-X33-L6], the “Residual thrombin activity: Top sample” value is on record as 89.9 and the “Residual thrombin activity: Equilibrated sample” value amounted to 95.4.

Consider `COc1ccc(C[C@@H]2NC(=O)[C@@H](NC(=O)c3ccc(Cl)s3)CCCSC/C=C/CSCCNC(=O)C[C@H]3CCCN3C2=O)cc1` [C3-X33-L4], for which the “Residual thrombin activity: Top sample” value was determined as 105.1 and the “Residual thrombin activity: Equilibrated sample” value amounted to 97.8.

As to `COc1ccc(C[C@@H]2NC(=O)[C@@H](NC(=O)c3ccc(Cl)s3)CCSCC(=O)CSCCNC(=O)C[C@H]3CCCN3C2=O)cc1` [C2-X33-L7], the “Residual thrombin activity: Top sample” value was determined as 102.7 and the “Residual thrombin activity: Equilibrated sample” value is on record as 99.9.
